The values that follow come from patent publication US12565504B2, “Spirocyclic O-glycoprotein-2-acetamido-2-deoxy-3-d-glucopyranosidase inhibitors” (BIOGEN MA INC., priority 2019, dated 2026).

For series [1], the target named is Recombinant full length human OGA enzyme (Homo sapiens (Human), UniProt O60502). Put plainly: OGA Enzyme Inhibition Biochemical Assay. To be noted: 1 nM OGA, 100 μM 4-MUGlcNAc, 90 minutes, pH 6.4. As to the method:
Recombinant full length human OGA enzyme was purchased from Origene. 4-MUGlcNAc substrate was purchased from Sigma. All other reagents were purchased from Sigma or Fisher. Assay buffer consists of the McIlvaine buffer system, pH 6.4 (0.2M Na2HPO4 mixed with 0.1M citric acid) and 0.01% BSA. […] Reactions were incubated for 90 minutes at room temperature and quenched with 40 μl of 3M glycine, pH 10 and read on a Perkin Elmer Envision plate reader (Ex: 355 nm/Em: 460 nm). Compounds were tested with a 10-point dose-response starting from 20 μM with a 4-fold dilution. Data was fit using GraphPad Prism using a 4-parameter fit with variable slope.

A further series has as its target OGA (S400 O-GLCNAC) (Homo sapiens (Human), UniProt O60502). Nature of the series: Cellular OGA-Tau MSD Assay. The conditions noted are these: HEK-293T cells transfected with OGT and Tau-V5; Tau-S400-GlcNAc MSD readout. The series is classed as cell-based. As to the method: HEK-293T cells were transfected with OGT and Tau-V5 plasmids using Lipofectamine and grown overnight. Next day, the cells were collected and re-plated at 1×10^5 cells per well in 96 well plates. Cells were incubated for 4 hr at 37° C., before compounds were added at 1 uM, with 3-fold dilutions in a 10-point titration. Cell plates were incubated with compounds overnight at 37° C. The next day media was removed from wells by gentle aspiration and 120 ul of 1× Cell Lysis buffer mixed with protease and phosphatase cocktail added to each well. A freeze thaw was performed at −80° C., then mixed before transferring 50 μl to MSD plates coated with V5-tag antibody to capture Tau. MSD Plates were incubated overnight at 4° C., on a plate shaker. The following day, plates were washed and incubated with Tau-S400-GlcNAc antibody for 2 hr and then developed with rabbit Sulfo-tag antibody. Final read out was carried out on an MSD 600 reader. The data was analyzed using Graph Pad or Genedata, the data was normalized and % activity versus log of compound concentration was plotted. The ICso values were obtained from a 4 parameter fit.

Another series concerns P-gp (MDR1). Nature of the series: MDR1-MDCK Efflux Ratio Assay. To be noted: dog, MDR1-MDCK cells, pH 7.4, read-out: MDR1-MDCK Efflux Ratio (B-A/A-B). It is filed as in vitro ADME. As to the method: MDR1-MDCK cell monolayers were grown to confluence on microporous polyester membranes in 96-well Corning insert plates. The permeability assay buffer was Hanks' Balanced Salt Solution containing 10 mM HEPES at pH of 7.4. Loperamide (1 μM) was used as a positive control P-gp substrate. Propranolol and Bestatin (1 μM) were used as high and low permeability comparators, respectively.
Test compounds or positive control P-gp substrate/permeability comprators were added to respective apical and basolateral chambers for bidirectional assessment of permeability. Receiver buffer (transport buffer supplemented with 1% bovine serum albumin) was added to respective receiver chambers. MDR1-MDCK cells were incubated with test compounds at 37° C. with 5% CO2 for 2 hr. Samples were collected from the donor chamber at both 0 and 120 minutes, and from the receiver chamber at 120 minutes. Test and control compound concentrations were determined using LC-MS/MS analysis. Each determination was performed in triplicate.

Series [2] is described as follows: Rat Liver Microsome Stability Assay. To be noted: rat liver microsomes 0.5 mg/mL, compound 1 μM; Qh 55 mL/minute/kg.
Protocol: Aliquots (40 uL) at 0, 5, 10, 15, 25 and 40 minutes post NADPH addition (or compound addition for reactions in absence of NADPH) were transferred into individual 96-well plate wells containing 40 ng/ml of 8-cyclopently-1,3-dipropylxanthine (CPDPX, internal standard) in 160 uL acetonitrile:methanol (1:1 v/v).
The LC/MS/MS system consisted of an ultra high throughput RapidFire® 300 system (Agilent Technologies, Santa Clara, CA) coupled to a Triple Quad 5500 mass spectrometer (ABSciex, Foster City, CA). Sample load and wash were performed on a RapidFire® C4 cartridge using 0.1% formic acid in water as mobile phase A and sample elution using 0.1% formic acid in acetonitrile:methanol (1:1 v/v) as mobile phase B.
CLint, app (apparent intrinsic clearance) was calculated using the following equation for microsome stability.
[formula] • where “a” represents 45 grams of liver/kg of body weight for rat. • CLint,app (apparent intrinsic clearance) was calculated using the following equation for hepatocyte stability: • CLhep (hepatic clearance) was calculated using the following equation for microsomes
[formula] • using 55 mL/minute/kg as Qh (hepatic blood flow) for rat.

Each structure is given as a SMILES string.

Sequence of OGA (S400 O-GLCNAC) (O60502 whole entry): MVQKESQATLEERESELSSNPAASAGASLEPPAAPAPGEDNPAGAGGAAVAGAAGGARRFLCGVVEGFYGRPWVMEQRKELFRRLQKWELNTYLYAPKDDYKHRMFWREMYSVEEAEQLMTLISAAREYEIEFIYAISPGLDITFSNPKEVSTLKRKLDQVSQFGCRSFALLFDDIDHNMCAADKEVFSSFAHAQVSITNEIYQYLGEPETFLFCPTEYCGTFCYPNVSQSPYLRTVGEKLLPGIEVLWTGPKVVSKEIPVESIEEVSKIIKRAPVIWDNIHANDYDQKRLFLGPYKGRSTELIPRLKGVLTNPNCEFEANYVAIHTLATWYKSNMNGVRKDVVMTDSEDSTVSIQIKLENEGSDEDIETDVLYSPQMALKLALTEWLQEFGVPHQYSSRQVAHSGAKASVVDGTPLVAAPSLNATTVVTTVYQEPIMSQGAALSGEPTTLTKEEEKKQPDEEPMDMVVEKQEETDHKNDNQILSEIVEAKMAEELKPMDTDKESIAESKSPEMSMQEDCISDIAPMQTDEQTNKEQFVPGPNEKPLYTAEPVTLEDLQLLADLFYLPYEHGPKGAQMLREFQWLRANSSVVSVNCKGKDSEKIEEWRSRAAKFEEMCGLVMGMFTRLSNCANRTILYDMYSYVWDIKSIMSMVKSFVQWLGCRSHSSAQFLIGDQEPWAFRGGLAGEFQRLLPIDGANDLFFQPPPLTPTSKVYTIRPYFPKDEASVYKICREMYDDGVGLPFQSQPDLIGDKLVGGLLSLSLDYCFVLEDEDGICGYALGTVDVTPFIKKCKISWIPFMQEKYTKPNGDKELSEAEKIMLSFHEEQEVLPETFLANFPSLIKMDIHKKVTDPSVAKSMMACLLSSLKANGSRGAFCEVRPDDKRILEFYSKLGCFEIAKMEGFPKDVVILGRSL
Sequence of Recombinant full length human OGA enzyme (O60502 whole entry): as above

With `CC(=O)Nc1ncc(CN2CCCC3(CCCO3)C2)s1` (stereo not drawn) [Example 52, N-(5-((1-Oxa-7-azaspiro[4.5]decan-7-yl)methyl)thiazol-2-yl)acetamide], the IC50 in series [1] was 180 nM; against OGA (S400 O-GLCNAC), over 1000 nM. In the series with P-gp (MDR1), the efflux ratio at 2 hr stood at 2.6. In addition, the “RLM % Qh (%)” value in series [2] was 74%.

`COc1cc2c(cn1)[C@@]1(C[C@H](C)N(Cc3cnc(NC(C)=O)s3)C1)OC2` (single isomer, unassigned) [Example 76-b]: the IC50 in series [1] was 160 nM; against OGA (S400 O-GLCNAC), 38 nM. The efflux ratio at 2 hr in the series with P-gp (MDR1) came to 8.9. The “RLM % Qh (%)” value in series [2] is recorded as 89%.

For the molecule `COc1nccc2c1COC21C[C@H](C)N(Cc2cnc(NC(C)=O)s2)C1` (stereo partly drawn) [Example 78, N-(5-(((5′S)-4-Methoxy-5′-methyl-3H-spiro[furo[3,4-c]pyridine-1,3′-pyrrolidin]-1′-yl)methyl)thiazol-2-yl)acetamide], the IC50 in series [1] worked out at 65 nM; on OGA (S400 O-GLCNAC), 9 nM. In addition, the efflux ratio at 2 hr in the series on P-gp (MDR1) is 7.9. Besides, the “RLM % Qh (%)” value in series [2] came out at 93%.

With `CC(=O)Nc1nc(F)c(CN2C[C@@]3(Cc4cc(N5CCOCC5)ncc4O3)C[C@@H]2C)s1` [Example 36, N-(4-Fluoro-5-(((2R,5′S)-5′-methyl-5-morpholino-3H-spiro[furo[2,3-c]pyridine-2,3′-pyrrolidin]-1′-yl)methyl)thiazol-2-yl)acetamide], the IC50 in series [1] was under 1 nM; at OGA (S400 O-GLCNAC), 8 nM. For the same molecule, the efflux ratio at 2 hr in the series on P-gp (MDR1) is 9.3. In addition, the “RLM % Qh (%)” value in series [2] was determined as 51%.

For the molecule `CC(=O)Nc1nc(F)c(CN2CCC3(Cc4cnc(Cl)cc4O3)C2)s1` (stereo not drawn) [Example 7, N-(5-((6-Chloro-3H-spiro[furo[3,2-c]pyridine-2,3′-pyrrolidin]-1′-yl)methyl)-4-fluorothiazol-2-yl)acetamide], the figures for the IC50 (in series [1]; at OGA (S400 O-GLCNAC)) were 54 nM and 301 nM, respectively. The efflux ratio at 2 hr in the series with P-gp (MDR1) worked out at 6.7. For the same molecule, the “RLM % Qh (%)” value in series [2] was 46%.

Take `CC(=O)Nc1nc(F)c(CN2CC3(C[C@@H]2C)OCc2cccnc23)s1` (stereo partly drawn) [Example 63, N-(4-Fluoro-5-(((5′S)-5′-methyl-5H-spiro[furo[3,4-b]pyridine-7,3′-pyrrolidin]-1′-yl)methyl)thiazol-2-yl)acetamide]: the IC50 was determined as 13 nM in series [1] and 57 nM against OGA (S400 O-GLCNAC). For the same molecule, the efflux ratio at 2 hr with P-gp (MDR1) was 26. Further, in series [2], the “RLM % Qh (%)” value stood at 78%.

In the case of `CC(=O)Nc1nc(F)c(CN2C[C@@]3(Cc4cc(=O)n(C)cc4O3)C[C@@H]2C)s1` [Example 48, N-(5-(((2R,5′S)-5′,6-Dimethyl-5-oxo-5,6-dihydro-3H-spiro[furo[2,3-c]pyridine-2,3′-pyrrolidin]-1′-yl)methyl)-4-fluorothiazol-2-yl)acetamide], the IC50 in series [1] was 1.4 nM; against OGA (S400 O-GLCNAC) it was 34 nM. Moreover, the efflux ratio at 2 hr with P-gp (MDR1) worked out at 12. Also, in series [2], the “RLM % Qh (%)” value was 16%.

On to `CC(=O)Nc1nc(F)c(CN2C[C@@]3(Cc4ncccc4O3)C[C@@H]2C)s1` (single isomer, unassigned) [Example 19-a], for which the figures for the IC50 (in series [1]; against OGA (S400 O-GLCNAC)) were 1 nM and 5 nM, respectively. In the series with P-gp (MDR1), the efflux ratio at 2 hr was found to be 14. Further, the “RLM % Qh (%)” value in series [2] is on record as 62%.

As to `CC(=O)Nc1nc(F)c(CN2CCCC3(C2)OCc2c3cc[nH]c2=O)s1` (stereo not drawn) [Example 86, N-(4-Fluoro-5-((4-oxo-4,5-dihydro-3H-spiro[furo[3,4-c]pyridine-1,3′-piperidin]-1′-yl)methyl)thiazol-2-yl)acetamide], the IC50 in series [1] was 14.5 nM; against OGA (S400 O-GLCNAC) it was 138 nM. In addition, the efflux ratio at 2 hr in the series with P-gp (MDR1) is 32.6. The “RLM % Qh (%)” value in series [2] turned out to be 37%.

On to `COCCN(C)c1cc2c(cn1)O[C@]1(C2)C[C@H](C)N(Cc2sc(NC(C)=O)nc2F)C1` [Example 33, N-(4-Fluoro-5-(((2R,5′S)-5-((2-methoxyethyl)(methyl)amino)-5′-methyl-3H-spiro[furo[2,3-c]pyridine-2,3′-pyrrolidin]-1′-yl)methyl)thiazol-2-yl)acetamide], for which the IC50 in series [1] is under 1 nM; against OGA (S400 O-GLCNAC), 2 nM. Besides, in the series with P-gp (MDR1), the efflux ratio at 2 hr came out at 22. In addition, the “RLM % Qh (%)” value in series [2] is on record as 82%.

For `CC(=O)Nc1ncc(CN2C[C@@]3(Cc4cc(N5C[C@@H](C)O[C@H](C)C5)ncc4O3)C[C@@H]2C)s1` [Example 40, N-(5-(((2R,5′S)-5-((2R,6R)-2,6-Dimethylmorpholino)-5′-methyl-3H-spiro[furo[2,3-c]pyridine-2,3′-pyrrolidin]-1′-yl)methyl)thiazol-2-yl)acetamide], the values for the IC50 (in series [1]; on OGA (S400 O-GLCNAC)) were 1.5 nM and 14 nM, respectively. The efflux ratio at 2 hr in the series with P-gp (MDR1) worked out at 27. Also, the “RLM % Qh (%)” value in series [2] stood at 54%.

With `CC(=O)Nc1nc(F)c(CN2C[C@@]3(Cc4cc(N5C[C@@H](C)O[C@H](C)C5)ncc4O3)C[C@@H]2C)s1` [Example 41, N-(5-(((2R,5′S)-5-((2R,6R)-2,6-Dimethylmorpholino)-5′-methyl-3H-spiro[furo[2,3-c]pyridine-2,3′-pyrrolidin]-1′-yl)methyl)-4-fluorothiazol-2-yl)acetamide], the IC50 was under 1 nM in series [1] and 8 nM against OGA (S400 O-GLCNAC). Moreover, the efflux ratio at 2 hr with P-gp (MDR1) worked out at 19.5. In addition, in series [2], the “RLM % Qh (%)” value is 65%.

`COc1cc2c(cn1)[C@]1(C[C@H](C)N(Cc3sc(NC(C)=O)nc3F)C1)OC2` (single isomer, unassigned) [Example 75-a] returned an IC50 against OGA (S400 O-GLCNAC) of 40 nM. Also, the efflux ratio at 2 h in the series with P-gp (MDR1) came to 7.8. In addition, in series [2], the “RLM % Qh (%)” value is reported as 59%.

`CC(=O)Nc1ncc(CN2CCCC3(C2)OCc2cncnc23)s1` (stereo not drawn) [Example 89, N-(5-((5H-Spiro[furo[3,4-d]pyrimidine-7,3′-piperidin]-1′-yl)methyl)thiazol-2-yl)acetamide]: the values for the IC50 (in series [1]; against OGA (S400 O-GLCNAC)) were 67.9 nM and 84.6 nM, respectively.

As for `CC(=O)Nc1nc(F)c(CN2C[C@@]3(Cc4cc(C)ncc4O3)C[C@@H]2C)s1` [Example 23, N-(5-(((2R,5′S)-5,5′-Dimethyl-3H-spiro[furo[2,3-c]pyridine-2,3′-pyrrolidin]-1′-yl)methyl)-4-fluorothiazol-2-yl)acetamide], the figures for the 50% inhibitory concentration (IC50) (in series [1]; against OGA (S400 O-GLCNAC)) were 1 nM and 13 nM, respectively.

For the molecule `CC(=O)Nc1nc(F)c(CN2CC3(C[C@@H]2C)OCc2ccccc23)s1` (stereo partly drawn) [Example 58, N-(4-Fluoro-5-(((5′S)-5′-methyl-3H-spiro[isobenzofuran-1,3′-pyrrolidin]-1′-yl)methyl)thiazol-2-yl)acetamide], the IC50 in series [1] came to 4.2 nM; on OGA (S400 O-GLCNAC), 14 nM.

For the molecule `CC(=O)Nc1ncc(CN2CCC3(C2)OCc2cnccc23)s1` (stereo not drawn) [Example 66, N-(5-((3H-Spiro[furo[3,4-c]pyridine-1,3′-pyrrolidin]-1′-yl)methyl)thiazol-2-yl)acetamide], the IC50 in series [1] was found to be 210 nM; against OGA (S400 O-GLCNAC), 794 nM.

On to `CC(=O)Nc1ncc(CN2CC3(C[C@@H]2C)OCc2ncccc23)s1` (stereo partly drawn) [Example 80, N-(5-(((5′S)-5′-Methyl-7H-spiro[furo[3,4-b]pyridine-5,3′-pyrrolidin]-1′-yl)methyl)thiazol-2-yl)acetamide], for which the IC50 in series [1] is 49 nM; against OGA (S400 O-GLCNAC), 15 nM.

`COc1cc2c(cn1)[C@@]1(C[C@H](C)N(Cc3sc(NC(C)=O)nc3F)C1)OC2` (single isomer, unassigned) [Example 75-b] showed a concentration for half-maximal inhibition (IC50) against OGA (S400 O-GLCNAC) of 24 nM. The efflux ratio at 2 h in the series on P-gp (MDR1) was 5.4. Also, the “RLM % Qh (%)” value in series [2] is 89%.

Turning to `CC(=O)Nc1ncc(CN2C[C@@]3(Cc4ccccc4O3)C[C@@H]2C)s1` [Example 2, N-(5-(((2R,5′S)-5′-Methyl-3H-spiro[benzofuran-2,3′-pyrrolidin]-1′-yl)methyl)thiazol-2-yl)acetamide], the figures for the IC50 (in series [1]; on OGA (S400 O-GLCNAC)) were 27 nM and 41 nM, respectively.
